The supplement of paper PMC10307832

How the values were obtained:
Test in all cases: relative viability (nuclei count vs DMSO), 5 days (fraction); higher = more cells survive
[1] = compound: CC1=CC(=CC=C1)NC2=NC(=CS2)C3=CC=NC=C3 + CC(C)C[C@H](NC(=O)[C@H](Cc1ccccc1)NC(=O)c1cnccn1)B(O)O [Bortezomib] (partner 0.002 µM)
Method in brief: (§1)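 The day after seeding in 1536-well plates, lung cancer cell lines were treated by pin tool with a single drug, or with a fixed anchor-drug dose together with five library-drug doses (not always all listed) in √10 steps. After 5 days, a combined fix-and-stain solution (final 0.05% Triton X-100, 1% formaldehyde, 1 ug/ml Hoechst) was added. Nuclei counted on 4× images gave relative viability as treated counts over vehicle counts, reported as the median of duplicate plates.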

[2] = compound: CC1=CC(=CC=C1)NC2=NC(=CS2)C3=CC=NC=C3 + O=C(c1cc(Cc2n[nH]c(=O)c3ccccc23)ccc1F)N1CCN(C(=O)C2CC2)CC1 [Olaparib] (partner 8 µM)
Method in brief: as §1

[3] = compound: CC1=CC(=CC=C1)NC2=NC(=CS2)C3=CC=NC=C3 + Cc1cc(Nc2cc(N3CCN(C)CC3)nc(Sc3ccc(NC(=O)C4CC4)cc3)n2)n[nH]1 [Tozasertib] (partner 0.1 µM)
Method in brief: as §1

[4] = compound: CC1=CC(=CC=C1)NC2=NC(=CS2)C3=CC=NC=C3 + CS(=O)(=O)CCNCc1ccc(-c2ccc3ncnc(Nc4ccc(OCc5cccc(F)c5)c(Cl)c4)c3c2)o1 [Lapatinib] (partner 2 µM)
Method in brief: as §1

Cell Line	relative viability ([1]; first compound 0.08 µM)	relative viability ([1]; first compound 0.253 µM)	relative viability ([1]; first compound 0.8 µM)	relative viability ([1]; first compound 2.53 µM)	relative viability ([1]; first compound 8 µM)	relative viability ([2]; first compound 0.08 µM)	relative viability ([2]; first compound 0.253 µM)	relative viability ([2]; first compound 0.8 µM)	relative viability ([2]; first compound 2.53 µM)	relative viability ([2]; first compound 8 µM)	relative viability ([3]; first compound 0.08 µM)	relative viability ([3]; first compound 0.253 µM)	relative viability ([3]; first compound 0.8 µM)	relative viability ([3]; first compound 2.53 µM)	relative viability ([3]; first compound 8 µM)	relative viability ([4]; first compound 0.08 µM)	relative viability ([4]; first compound 0.253 µM)	relative viability ([4]; first compound 0.8 µM)	relative viability ([4]; first compound 2.53 µM)	relative viability ([4]; first compound 8 µM)
NCI-H1355	1.08	1.02	0.991	0.465	0.716	0.579	0.531	0.444	0.385	0.407	0.518	0.516	0.428	0.335	0.281	0.723	0.713	0.652	0.656	0.651
NCI-H2405	0.929	0.87	0.87	0.774	0.903	0.751	0.75	0.677		0.723	0.65	0.727	0.541	0.691	0.602	0.853	1	0.919	0.936	0.813
NCI-H2009	0.829	0.894	1.04	1	0.724	0.629	0.644	0.717	0.677	0.63	0.737	0.699	0.715	0.823	0.704	0.768	0.857	0.978	0.89	0.588
PC-14	0.966	0.899	0.685	0.909	0.499	0.298	0.289	0.289	0.238	0.162	0.527	0.58	0.497	0.526	0.555	0.295	0.258	0.338	0.312	0.292
HARA	1.09	1.16	1.1	1.03	0.936	0.936	0.701	0.524	0.445	0.839	0.112	0.101	0.104	0.104	0.133	0.483	0.641	0.509	0.474	0.527
NCI-H2126	1.06	1.04	1.16	0.989	0.91	0.894	0.898	0.869	0.88	0.887	0.77	0.756	0.798	0.686	0.737	0.593	0.667	0.68	0.594	0.572
NCI-H1915	0.976	0.973	0.944	0.846	0.762	0.271	0.263	0.25	0.243	0.23	0.455	0.442	0.411	0.367	0.404	0.91	0.892	1.01	0.876	0.823
NCI-H661	0.864	0.862	0.759	0.653	0.706	0.736	0.803	0.769	0.75	0.642	0.33	0.367	0.353	0.341	0.333	0.481	0.506	0.573	0.468	0.507
COR-L23	1.01	0.913	0.779	0.924	0.595	0.308	0.283	0.245	0.322	0.285	0.186	0.189	0.155	0.172	0.099	0.709	0.878	0.651	1.07	0.881
COR-L 105	0.7	0.804	0.734	0.563	0.456	0.575	0.499	0.477	0.541	0.457	0.348	0.296	0.282	0.381	0.372	0.289	0.41	0.382	0.408	0.389
201T	1.05	1.06	1.08	0.888	0.919	0.853	0.845	0.788	0.826	0.757	1.04	0.94	0.961	0.804	0.692	0.982	0.956	0.97	0.767	0.752
HCC-44	0.75	0.702	0.71	0.707	0.809	0.952	0.791	0.764	0.668	0.646	0.743	0.782	0.857	0.676	0.795	0.757	0.755	0.831	0.777	0.812
NCI-H647	0.826	0.92	0.965	0.836	0.621	0.477	0.528	0.55	0.523	0.305	0.266	0.29	0.286	0.316	0.222	0.958	0.977	0.849	0.932	0.917
H3255	0.664	0.624	0.886	0.586	0.604	0.542	0.569	0.562	0.533	0.475	0.627	0.624	0.614	0.599	0.6	0.225	0.325	0.203	0.195	0.211
NCI-H650	0.76	0.72	1.09		0.857	0.338	0.348	0.392	0.368	0.367	0.654	0.646	0.78	0.645	0.727	0.708	0.815	1.32		0.975
NCI-H2085	1.02	1.07	1.06	0.94	0.574	0.844	0.784	0.757	0.769	0.587	0.748	0.744	0.652	0.467	0.421	0.658	0.639	0.707	0.67	0.674
NCI-H2347	0.748	0.74	0.847	0.804	0.57	0.47	0.536	0.538	0.568	0.48	0.51	0.605		0.489	0.489	0.731	0.767	0.635	0.95	0.757

Cell Line	relative viability ([1]; first compound 0.08 µM)	relative viability ([1]; first compound 0.253 µM)	relative viability ([1]; first compound 0.8 µM)	relative viability ([1]; first compound 2.53 µM)	relative viability ([1]; first compound 8 µM)	relative viability ([2]; first compound 0.08 µM)	relative viability ([2]; first compound 0.253 µM)	relative viability ([2]; first compound 0.8 µM)	relative viability ([2]; first compound 2.53 µM)	relative viability ([2]; first compound 8 µM)	relative viability ([3]; first compound 0.08 µM)	relative viability ([3]; first compound 0.253 µM)	relative viability ([3]; first compound 0.8 µM)	relative viability ([3]; first compound 2.53 µM)	relative viability ([3]; first compound 8 µM)	relative viability ([4]; first compound 0.08 µM)	relative viability ([4]; first compound 0.253 µM)	relative viability ([4]; first compound 0.8 µM)	relative viability ([4]; first compound 2.53 µM)	relative viability ([4]; first compound 8 µM)
NCI-H596	0.845	1.08	0.893	0.853	0.74	0.674	0.546	0.673	0.6	0.613	0.93	0.968	0.745	0.861	0.746	0.854	0.974	0.819	0.94	1.01
NCI-H520	0.586	0.505	0.56	0.786	0.235	0.384	0.325	0.391	0.314	0.288	0.372	0.458	0.481	0.514	0.458	0.883	0.827	0.932	0.777	0.954
EKVX	1.01	0.994	0.747	0.957	0.696	0.617	0.72		0.525	0.371	0.45	0.395	0.36	0.384	0.294	0.182	0.189	0.206	0.163	0.171
EPLC-272H	1.03		0.73		0.352	0.79	0.673	0.551	0.687	0.619	0.294	0.206	0.248	0.313	0.51	0.831		0.867		0.908
NCI-H1650	0.194	0.193	0.213	0.213	0.191	0.539	0.901	0.525	0.488	0.432	0.531	0.543	0.461	0.363	0.269	0.801	0.735	0.753	0.445	0.176
NCI-H2228	0.892	0.761	0.771	0.925	0.714	0.396	0.324	0.525	0.559	0.415	0.24	0.198	0.175	0.162	0.157	0.948	1.11	0.884	0.823	0.883
NCI-H2023	0.899	0.873	0.959	0.949	0.543	0.42	0.543	0.38	0.388	0.286	0.332	0.332	0.321	0.228	0.116	0.661	0.698	0.771	0.749	0.473
NCI-H3122	1.03	1.07	1.06	0.996	1.03	0.578	0.591	0.548	0.587	0.457	0.386	0.455	0.47	0.384	0.457	1.05	1.08	1.05	1.09	1.08
HCC-78	0.409	0.473	0.469	0.414	0.274	0.713	0.791	0.842	0.685	0.674		0.402	0.365	0.405	0.391	0.708	0.528	0.862	0.623	0.673
LOU-NH91	0.446	0.457	0.447	0.461	0.398	0.8	0.862	0.889	0.887	0.855	0.607	0.709	0.566	0.681	0.58	0.576	0.613	0.686	0.705	0.551
NCI-H322M	1.18	1.29	1.14	1.22	1.03	0.687	0.76	0.725	0.613	0.575	0.419	0.444	0.478	0.519	0.492	0.538	0.518	0.519	0.572	0.662
HCC-827	1.05	0.903	0.946	0.974	0.882	0.639	0.635	0.661	0.717	0.654	0.415	0.392	0.45	0.409	0.391	0.204	0.187	0.191	0.187	0.179
SW 1573	1.06	0.954	1.03	1.09	0.807	0.486	0.544	0.526	0.465	0.441	0.184	0.168	0.279	0.154	0.185	1.13	0.977	1.15	1.38	1.08
NCI-H1993	1	1.03	0.885	0.894	0.993	0.945	1.01	0.923	1.11	0.898	0.543	0.605	0.562	0.617	0.519	0.685	0.802	0.7	0.869	0.778
NCI-H1734	0.906	0.874	0.941	0.919	0.36	0.552	0.584	0.57	0.63	0.539	0.25	0.285	0.22	0.246	0.23	0.896	1.02	1.04	0.932	0.928
NCI-H1666	0.503	0.553	0.41	0.388	0.409	0.677	0.771	0.737	0.766	0.824	0.588	0.56	0.503	0.582	0.436	0.245	0.24	0.256	0.283	0.241
